Results as given in patent US20250228795A1, “ESTROGENIC COMPOUNDS AND METHODS OF USE” (laterion, Inc., priority 2022, published 2025).

What was measured:
[1] = system: MCF-7 breast cancer cells; test: MCF-7 cell proliferation (viable cell counts), CC7 and six analogs; assay type: cell-based
Experimental: In order for long term menopausal hormone therapy to be a viable alternative to currently available therapeutic options it must not promote breast cancer. […] MCF-7 cells were incubated for 24 hr in the presence of medium (control), 1 nM […], or 5 μM of each of the compounds depicted in FIG. 4 (CC7 and six analogs, A9, A10, A11, A13, A15, and A20). Viable cell counts were determined by flow cytometry.
(§1) MCF-7 cells were plated at a density of 50,000 cells per well in 6-well tissue culture plates in DMEM/F12 supplemented with 5% stripped FBS. […] The cells were then detached with trypsin, neutralized with media containing 5% FBS, and resuspended. Appropriate amounts of cell suspension were placed in ISOTON II diluent (Thermo Fisher Scientific, Waltham, MA, USA) and the cell numbers were then measured using a Coulter Counter (Beckman, Brea, CA, USA).
(§2) Flow cytometry was performed based on a previously described method (Pan et al. 2016). Briefly, the cells were plated at a density of 500,000 cells per well in 6-well tissue culture dishes in DMEM/F-12 supplemented with 5% stripped FBS for 48 h. The cultured medium was then replaced by serum-free DMEM/F12 for 24 h. […] The culture medium was then aspirated, and the cells were washed with PBS, detached with trypsin and collected by centrifugation at 1700 rpm for 5 min. The cell pellets were washed with ice cold PBS followed by centrifugation at 1700 rpm for 10 min at room temperature. The cell pellets were resuspended in 500 μL PBS containing 50 μg/mL propidium iodide, 0.1% of triton X-100, 0.1% of sodium citrate, and 10 μg/mL of RNase. The cell suspensions were then analyzed with a BD LSR II Flow Cytometer (BD Biosciences, San Jose, CA, USA) in the Flow Cytometry facility at University of California, Berkeley and the percentage of cells in cell cycle phases were determined by using FlowJo 7.6.5 (FlowJo, LLC, Ashland, OR, USA).

KRT19 = test: Gene expression assay (real-time PCR) in U2OS-ERα cells: KRT19; assay type: cell-based, Human; conditions: in combination with E2, U2OS-ERα cells, FIG. 5
Experimental: (§3) Human U2OS (osteosarcoma) cells expressing a tetracycline-regulated ERα (U2OS-ERα) were prepared, characterized, and maintained as previously described (Tee et al., 2004). The cells were maintained in phenol red-free Gibco DMEM/F-12 (Thermo Fisher Scientific, Waltham, MA, USA) supplemented with 5% charcoal-dextran stripped fetal bovine serum (FBS, Gemini Bio Products, West Sacramento, CA, USA), 100 units/mL penicillin and streptomycin, 50 μg/mL Fungizone, and 2 mM of glutamine. To maintain stable transfected cells, 50 μg/mL hygromycin B and 500 μg/mL of zeocin (Invitrogen, Waltham, MA, USA) were included in culture media.

FGR = test: Gene expression assay (real-time PCR) in U2OS-ERα cells: reprogrammed gene FGR; assay type: cell-based, Human; conditions: FIG. 5
Experimental: as §3

[2] = system: MCF-7 breast cancer cells; test: MCF-7 cell proliferation (viable cell counts), A9 and its four analogs; assay type: cell-based
Experimental: Viable cell counts were determined by flow cytometry.
as §1, with “USA)” for “USA).”
as §2

ERα [3] = target: T1, ERα (Homo sapiens, UniProt P03372); test: Luciferase activity in ERE-TK-Luc/ERα-transfected Ishikawa cells; assay type: cell-based; set-up: expressed in transfected cells; host or cells: Ishikawa cells; conditions: FIG. 6
T1 sequence (P03372 1-595): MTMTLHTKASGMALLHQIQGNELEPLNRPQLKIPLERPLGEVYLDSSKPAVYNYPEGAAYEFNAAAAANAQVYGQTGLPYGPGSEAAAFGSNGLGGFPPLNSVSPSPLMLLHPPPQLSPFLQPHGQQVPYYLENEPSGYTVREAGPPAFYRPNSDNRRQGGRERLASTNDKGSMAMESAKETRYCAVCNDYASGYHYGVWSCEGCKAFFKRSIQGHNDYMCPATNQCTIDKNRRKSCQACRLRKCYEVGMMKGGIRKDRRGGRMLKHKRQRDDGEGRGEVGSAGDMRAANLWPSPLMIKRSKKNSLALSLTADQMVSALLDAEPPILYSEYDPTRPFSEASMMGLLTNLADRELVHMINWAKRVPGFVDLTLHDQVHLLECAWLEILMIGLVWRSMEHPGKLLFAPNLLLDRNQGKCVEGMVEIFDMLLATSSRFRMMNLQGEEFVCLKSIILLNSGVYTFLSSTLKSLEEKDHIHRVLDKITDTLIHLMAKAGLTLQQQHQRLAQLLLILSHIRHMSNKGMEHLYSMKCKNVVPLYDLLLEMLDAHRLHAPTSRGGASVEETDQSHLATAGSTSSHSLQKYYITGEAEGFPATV

ERα [4] = target: T1, ERα; test: Luciferase assay of A9 analogs in doxycycline-dependent U2OS cells (ER-TK-Luc or NKG2E-TK-Luc); assay type: cell-based; set-up: expressed in transfected cells; host or cells: doxycycline-dependent U2OS cells; conditions: in combination with E2; ER-TK-Luc (FIG. 9) and NKG2E-TK-Luc (FIG. 10); compared with A9R1-A9R4
Experimental: Luciferase Assay of A9 analogs. In order to better understand the structure-activity relationship of analogs of A9, the analogs A9R1, A9R2, A9R3, and A9R4 were prepared. See structures on FIG. 8. […] Luciferase activity results are shown in FIG. 9 (ER-TK-Luc) and FIG. 10 (NKG2E-TK-Luc).

ERβ = target: T2, ERβ (Homo sapiens, UniProt Q92731); test: Luciferase activity in NKG2E-TK-Luc-transfected U2OS-ERβ cells with doxycycline; assay type: cell-based; conditions: in combination with E2, doxycycline, FIG. 7
T2 construct: expressed in transfected cells; host or cells: doxycycline-dependent U2OS cells
T2 sequence (Q92731 whole entry): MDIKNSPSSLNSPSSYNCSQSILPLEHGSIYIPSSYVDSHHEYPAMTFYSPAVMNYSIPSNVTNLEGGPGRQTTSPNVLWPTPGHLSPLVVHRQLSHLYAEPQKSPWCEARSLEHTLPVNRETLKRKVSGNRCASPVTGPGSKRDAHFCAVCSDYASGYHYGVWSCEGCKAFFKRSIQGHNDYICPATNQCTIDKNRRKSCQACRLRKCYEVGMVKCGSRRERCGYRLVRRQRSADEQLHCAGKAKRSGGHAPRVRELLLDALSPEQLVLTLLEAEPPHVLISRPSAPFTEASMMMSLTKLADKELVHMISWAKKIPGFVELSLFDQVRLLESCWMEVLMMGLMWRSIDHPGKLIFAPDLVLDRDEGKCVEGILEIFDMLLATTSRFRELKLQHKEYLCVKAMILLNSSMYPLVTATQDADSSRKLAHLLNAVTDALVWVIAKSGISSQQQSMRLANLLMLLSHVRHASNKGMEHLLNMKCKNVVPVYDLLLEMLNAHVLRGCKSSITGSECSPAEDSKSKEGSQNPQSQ
Experimental: Luciferase Activity in NKG2E-TK-Luc-Transfected U2OS-ERβ Cells with Doxycycline. […] Luciferase activity for each of the compounds was recorded.

[5] = compound (5 μM) in combination with E2, FIG. 4
[6] = compound (5 μM) in combination with E2, FIG. 11
[7] = compound alone (1 nM E2 or 5 μM compound), FIG. 11
[8] = in combination with E2, Ishikawa cells

Compound | MCF-7 viable cell count / proliferation [1, 5] | MCF-7 viable cell count / proliferation [2, 6] | luciferase activity (NKG2E-TK-Luc), ERβ activity (ERβ) | also measured
O=C(/C=C/c1ccccc1)c1ccc(O)c(O)c1O [CC7, 2′,3′,4′-trihydroxychalcone, reference compound] | well below the cell counts for E2 alone | well below the control | – | MCF-7 viable cell count / proliferation ([1]; compound alone (1 nM E2 or 5 μM compound), FIG. 4): well below the cell counts for E2 alone; KRT19 expression (KRT19): large synergistic effect; FGR expression (FGR; compound by itself, U2OS-ERα cells): not by either compound by itself; FGR expression (FGR; in combination with E2, U2OS-ERα cells): activated by the combination of E2 and CC7 only; MCF-7 viable cell count / proliferation [2, 7]: well below the cell counts for E2 alone; luciferase activity (ERE-TK-Luc) (ERα [3]; compound alone, Ishikawa cells): no effect; luciferase activity (ERE-TK-Luc) (ERα [3]; [8]): demonstrated synergism with E2
O=C(/C=C/c1ccccn1)c1ccc(O)c(O)c1O [Example A9, (E)-3-(pyridin-2-yl)-1-(2,3,4-trihydroxyphenyl)prop-2-en-1-one] | well below the control | well below the control | – | MCF-7 viable cell count / proliferation [2, 7]: well below the cell counts for E2 alone; luciferase activity (ERE-TK-Luc) (ERα [3]; compound alone, Ishikawa cells): no effect; luciferase activity (ERE-TK-Luc) (ERα [3]; [8]): demonstrated synergism with E2; luciferase activity, synergistic effect with E2 (ERα [4]): greatest synergistic effect with E2
O=C(/C=C/c1ccccn1)c1ccc(O)cc1 [Example A9R1, (E)-1-(4-hydroxyphenyl)-3-(pyridin-2-yl)prop-2-en-1-one] | – | well below the control | – | –
Cc1cc(O)ccc1C(=O)/C=C/c1ccccn1 [Example A9R2, (E)-1-(4-hydroxy-2-methylphenyl)-3-(pyridin-2-yl)prop-2-en-1-one] | – | well below the control | – | –
O=C(/C=C/c1ccccn1)c1ccc(O)cc1O [Example A9R4, (E)-1-(2,4-dihydroxyphenyl)-3-(pyridin-2-yl)prop-2-en-1-one] | – | well below the control | – | –
O=C(/C=C/c1cccc(O)c1)c1ccc(O)c(O)c1O [Example A10, (E)-3-(3-hydroxyphenyl)-1-(2,3,4-trihydroxyphenyl)prop-2-en-1-one] | well below the cell counts for E2 alone | – | exceptional ERβ activity | –
O=C(/C=C/c1ccc(O)cc1)c1ccc(O)cc1 [Example A13, (E)-1,3-bis(4-hydroxyphenyl)prop-2-en-1-one] | – | – | exceptional ERβ activity | –
O=C(/C=C/c1ccc(O)cc1)c1ccc(O)c(O)c1 [Example A14, (E)-1-(3,4-dihydroxyphenyl)-3-(4-hydroxyphenyl)prop-2-en-1-one] | – | – | exceptional ERβ activity | –
O=C(/C=C/c1ccc(O)cc1)c1ccccc1 [Example A15, (E)-3-(4-hydroxyphenyl)-1-phenylprop-2-en-1-one] | – | – | exceptional ERβ activity | –
